Reference: PubChem BioAssay AID2387 (Broad Institute, 2010)
Values joined by “and” are separate entries in the source; they are usually repeats but may differ in a detail not shown here. Equal values may be shown once. Active and inactive are the calls of the source.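 The calls were made as follows: active = fitted EC50 no more than tenfold above the highest tested concentration; inconclusive = flat fit with 30 to 70% signal loss, or poor fit; inactive = the rest.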

System: Candida albicans CaCi-2 growth (no fluconazole), Alamar Blue
Assay: intrinsic antifungal toxicity in Candida, azole-free – CaCi-2 strain, Alamar Blue fluorescence, counter-screen for fluconazole resistance reversal project, dose response (AID 2387)
Conditions: C. albicans CaCi-2 (fluconazole-resistant clinical isolate) growth without fluconazole, 48 h

SMILES | EC50
CCCC(=O)NC(c1ccco1)c1cc([N+](=O)[O-])c2cccnc2c1O (configuration not stated) | > 15 µM (inactive)
COc1cccc(C2CC(c3ccc(NS(C)(=O)=O)cc3)=NN2C(=O)c2ccccc2)c1OC (configuration not stated) | > 15 µM (inactive)
Cc1ccc(NC(=O)c2noc(C(C)C)c2[N+](=O)[O-])cc1 | > 16 µM (inactive)
COc1ccc(OC)c(/C=C2\SC(=S)N(NS(=O)(=O)c3ccc(C)cc3)C2=O)c1 | > 15 µM (inactive)
COc1cccc(/C=N/NC(=O)c2c(C)nc3ccc(Br)cn23)c1O | > 16 µM (inactive)
Oc1c(CN2CCc3ccccc3C2)cc(Cl)c2cccnc12 | 4.84 µM
[O-][n+]1cccc2c(Br)cc(Br)c(O)c21 | 16.4 µM
CCN1CCN(C(c2cccnc2)c2cc(Cl)c3cccnc3c2O)CC1 (configuration not stated) | 15.6 µM
Cc1cccc2sc(NNC(=O)c3cc(-c4cccs4)nc4ccccc34)nc12 | > 16 µM (inactive)
CCN(CC)S(=O)(=O)c1ccc(N/N=C/c2ccc(O)cc2O)nc1 | > 16 µM (inactive)
Cc1ccc(-n2c(O)c(C=Nc3ccccc3-c3n[nH]c(=S)[nH]c3=O)c3ccccc3c2=O)cc1C | > 16 µM (inactive)
O=C(NCc1ccccc1)c1sc(=S)n2c1[nH]c(=O)c1ccccc12 | > 15 µM (inactive)
Cc1nn(-c2ccccc2)c(C)c1C(=O)OC/C(O)=C(\C#N)c1nc2ccccc2[nH]1 | > 15 µM (inactive)
c1ccc(CC2CCN(c3ncnc4sccc34)CC2)cc1 | > 16 µM (inactive)
CCCC(=O)NC(c1ccc(Cl)cc1)c1ccc2cccnc2c1O (configuration not stated) | 16.1 µM
CCCC(=O)NC(c1ccc(C)cc1)c1ccc2cccnc2c1O (configuration not stated) | > 15 µM (inactive)
O=C(c1ccc(Cn2c(=O)[nH]c3ccccc3c2=O)cc1)N1CCN(c2ccc(F)cc2)CC1 | > 15 µM (inactive)
COc1ccc2c(c1)/C(=C/c1cnc[nH]1)C(=O)N2 | > 16 µM (inactive)
Cc1oc2ccc(OC(=O)N(C)C)cc2c1C(=O)OC(C)C | > 16 µM (inactive)
CCC(=O)NC(c1cccs1)c1cc(Cl)c2cccnc2c1O (configuration not stated) | 16.4 µM
CCCCC(=O)NC(c1ccc(N(CC)CC)cc1)c1ccc2cccnc2c1O (configuration not stated) | 8.6 µM
O=C(NNc1nc2ccc(Cl)cc2s1)c1cc(-c2cccs2)nc2ccccc12 | > 16 µM (inactive)
COc1ccc(CCNc2ncnc3sc(C)cc23)cc1OC | > 15 µM (inactive)
COc1ccc(C2c3ccc4ccccc4c3Oc3ncn(CCN4CCOCC4)c(=N)c32)cc1 (configuration not stated) | > 16 µM (inactive)
Oc1c(C(Nc2nccs2)c2ccc(C(F)(F)F)cc2)ccc2cccnc12 (configuration not stated) | 4.35 µM
Cc1cc(C(=O)Nc2sc3c(c2C#N)CCCC3)no1 | > 16 µM (inactive)

SMILES | EC50
Nc1ccc(C(=O)N/N=C\c2ccc(OC(=O)c3ccccc3Cl)cc2)cc1 | > 16 µM (inactive)
N#C/C(=C\c1ccc(N2CCOCC2)cc1)c1ccccc1 | > 16 µM (inactive)
Cc1c(O)c2c3c(cccc3c1O)C(=O)N(c1ccccc1)C2=O | > 15 µM (inactive)
Cn1cc(C(c2ccccn2)c2cn(C)c3ccccc23)c2ccccc21 | > 15 µM (inactive)
CCNc1nc(N)nc(-c2cc(Cl)ccc2O)n1 | > 15 µM (inactive)
CC[n+]1c(C=C2C=C(C)OC(C)=C2)sc2ccccc21 | > 16 µM (inactive)
O=C(Nc1nc(-c2ccccn2)cs1)c1ccc(Br)s1 | 10.2 µM
O=[N+]([O-])c1cc(CN2CCN(c3ccccc3)CC2)c(O)c2ncccc12 | 6.17 µM
Clc1ccc2c(c1)C(c1cccs1)=NNC(c1cccnc1)=N2 | > 15 µM (inactive)
N#Cc1cc(C#N)c(N2CCN(c3cccc(Cl)n3)CC2)nc1N | > 15 µM (inactive)
O=c1ccc(N=Nc2ccccc2)ccc1O | 3.88 µM
Cc1cc(N/N=C/c2c(O)ccc3ccccc23)nc(-c2ccccc2O)n1 | > 16 µM (inactive)
Cc1cc(NC(c2ccc(Cl)cc2)c2ccc3cccnc3c2O)no1 (configuration not stated) | 3.53 µM
O=C(Nc1nc2ccc(SC(F)F)cc2s1)c1ccc(NS(=O)(=O)c2ccc(F)c(F)c2)cc1 | > 15 µM (inactive)
O=C(O)c1ccccc1-c1ccccc1C(=O)Nc1cccc(-c2nc3ccccc3o2)c1 | > 15 µM (inactive)
C=CCOC(=O)c1sc(NC(=O)c2ccco2)nc1C | > 15 µM (inactive)
COc1ccc(-n2cc(-c3ccc(C)cc3)[n+]3c2SCC3)cc1 | > 15 µM (inactive)
CCN(CC)c1ccc2cc(S(=O)(=O)c3ccc(C)cc3)c(=O)oc2c1 | > 16 µM (inactive)
CCOc1ccc(-c2ccc(NS(=O)(=O)c3ccc([N+](=O)[O-])cc3)cc2)nn1 | > 15 µM (inactive)
CCN(Cc1ccccc1)S(=O)(=O)c1ccc(C(=O)Nc2nnc(-c3ccccc3OC)o2)cc1 | > 15 µM (inactive)
CCNC(=S)NNC(=O)c1cc(-c2ccccc2C)nc2ccccc12 | > 16 µM (inactive)
CCc1nnc(NC(=O)CN2CCN(c3nc(-c4ccccc4)cs3)CC2)s1 | > 15 µM (inactive)
CCCCCCc1c(C)nc(-n2[nH]c(C)c(CCO)c2=O)[nH]c1=O | > 16 µM (inactive)
O=C(CNc1ccc2ccccc2c1)N/N=C/c1ccc([N+](=O)[O-])o1 | > 16 µM (inactive)
O=c1[nH]c(=S)[nH]nc1Cc1ccc(Cl)c(Cl)c1 | > 16 µM (inactive)
O=C(CC(=O)c1cccc([N+](=O)[O-])c1)Nc1ccccc1Cl | > 16 µM (inactive)

SMILES | EC50
c1ccc2c(c1)OCC(CNc1ncnc3sccc13)O2 (configuration not stated) | > 15 µM (inactive)
CC(C)CC(=O)NC(c1cccs1)c1ccc2cccnc2c1O (configuration not stated) | 14.2 µM
S=c1[nH]nc(C2CCCCC2)n1/N=C/c1ccc(Br)s1 | > 15 µM (inactive)
CCOc1ccc(N=Nc2ccc(O)c3ncccc23)cc1 | 2.3 µM
CCc1nnc(NC(=O)CSc2ncc(-c3ccccc3)n2C)s1 | > 15 µM (inactive)
O=C(Nc1nnc(C2COc3ccccc3O2)o1)c1ccc(F)cc1 (configuration not stated) | > 15 µM (inactive)
Cc1cc(C)n(-c2nc3ccccc3c(=O)n2OCC#N)n1 | 11.2 µM
COc1ccc(C)cc1N=Nc1ccc(O)c2ncccc12 | 2.77 µM
O=C(c1ccc(Cn2c(=S)[nH]c3ccccc3c2=O)cc1)N1CCN(c2ccccn2)CC1 | > 15 µM (inactive)
Cn1c(N2CCOCC2)c(/C=N/OC(=O)c2ccc(F)cc2)c2ccccc21 | > 16 µM (inactive)
Oc1c(Br)cc(Br)cc1/C=N/Nc1ccc(Cl)nn1 | > 16 µM (inactive)
O=[N+]([O-])c1nn(-c2ccc(Cl)cc2)n(O)c1=NCc1cccnc1 | > 15 µM (inactive)
O=C(Oc1c(Cl)cc(Cl)c2cccnc12)c1ccco1 | 1.17 µM
CCCCCCCNC(=O)COc1ccc2c(c1)C(=O)CC(C)(C)O2 | > 16 µM (inactive)
COc1ccc(C(=O)NC(=S)NNC(=O)c2ccc(C)cc2)cc1 | > 15 µM (inactive)
Oc1c(C(c2ccc(Cl)cc2)N2CCCC2)cc(Cl)c2cccnc12 (configuration not stated) | 3.15 µM
Cc1ccccc1C(=O)O/N=C/c1c(N2CCOCC2)n(C)c2ccccc12 | > 16 µM (inactive)
COc1ccc(-c2nnc(NC(=O)c3cc(Cl)ccc3Cl)o2)cc1 | > 15 µM (inactive)
O=C1CS/C(=N\C(=O)N2c3ccccc3Sc3ccccc32)N1 | > 15 µM (inactive)
C=CCc1c(C)c(C#N)c2nc3ccccc3n2c1NCCN(C)C | > 15 µM (inactive)
O=C(c1cc2ccccc2cc1O)N1CCN(c2ccccc2O)CC1 | > 15 µM (inactive)
CCC(C)n1cnc2c(c1=O)c1nc3ccccc3nc1n2Cc1ccc(OC)cc1 (configuration not stated) | > 16 µM (inactive)
Cc1cc(C)c(-c2cc(NC(=O)COC(=O)c3ccc(C#N)cc3)n(-c3ccccc3)n2)cc1C | > 16 µM (inactive)
CC(C)Cc1nc2oc3c(=O)[nH]cnc3c2c2c1CCCC2 | > 15 µM (inactive)
CCCOc1ccc(C(=O)NNC(=S)NC(C)=O)cc1 | > 16 µM (inactive)
CCc1nnc(NC(=O)CSc2nc(SC)ns2)s1 | > 16 µM (inactive)

SMILES | EC50
Cc1ccccc1/C=C1\SC(=S)N(/N=C/c2cc([N+](=O)[O-])ccc2O)C1=O | > 16 µM (inactive)
Cc1ccc(C)c(NC(=S)NNC(=O)c2csc(C(C)C)c2)c1 | > 16 µM (inactive)
O=C(Nc1nnc(CCc2ccccc2)s1)c1ccco1 | > 15 µM (inactive)
O=C(c1cc(-c2ccccc2)n[nH]1)N1CCc2c([nH]c3ccccc23)C1c1ccccn1 (configuration not stated) | > 16 µM (inactive)
CCOc1ccccc1NC(=O)C(=O)N/N=C/c1cc(Br)ccc1O | > 16 µM (inactive)
COc1cccc(N=Nc2ccc3cccnc3c2O)c1 | 1.05 µM
Cc1ccc(C)c(S(=O)(=O)N2CCN(Cc3ccc(O)c4ncccc34)CC2)c1 | > 16 µM (inactive)
COc1cccc(COc2cc3ccccc3nc2C)c1 | > 16 µM (inactive)
Cc1ccc2ccc3ccc(C)nc3c2n1 | > 15 µM (inactive)
Cc1ccc2nc(N3C(=O)C(O)=C(C(=O)c4ccco4)C3c3ccc(C)o3)sc2c1 (configuration not stated) | > 15 µM (inactive)
Nc1[nH]c(=O)ncc1F | > 16 µM (inactive)
COc1ccc(C(c2c(O)ccc3ccccc23)N2CCOCC2)c(OC)c1 (configuration not stated) | > 16 µM (inactive)
O=C(Oc1c(Cl)cc(Cl)c2cccnc12)c1cccs1 | 1.41 µM
CCc1ccc2c(c1)/C(=C/C(=O)c1cccs1)C(=O)N2 | > 15 µM (inactive)
CCOc1ccc(NC(=O)c2cn(-c3ccc(OCC)cc3)c(=O)c3cc(OC)c(OC)cc23)cc1 | > 16 µM (inactive)
NC(=NCCCCCCN=C(N)/N=C(\N)Nc1ccc(Cl)cc1)/N=C(\N)Nc1ccc(Cl)cc1 | > 16 µM (inactive) and > 15 µM (inactive)
CC[n+]1c(/C=C2\Sc3ccccc3N2C)ccc2cccc(C)c21 | 2.43 µM
Cc1ccc(-c2nc3c(Cl)cc(Cl)cc3c(=O)n2O)cc1 | 11.5 µM
O=C(Nc1nnc(-c2ccc3c(c2)CCCC3)o1)c1ccccc1 | 9.67 µM
CCNc1nc(NC(C)C)nc(NC(C)(C)C)n1 | > 16 µM (inactive)
COc1cc2c(cc1NC(=O)c1ccco1)CCCC2 | > 15 µM (inactive)
COc1ccc(Cl)cc1C(Nc1cccnc1)c1ccc2cccnc2c1O (configuration not stated) | 11.8 µM
CCCC(=O)NC(c1ccccc1)c1ccc2cccnc2c1O (configuration not stated) | > 16 µM (inactive)
O=C(NNC(=S)NC(=O)c1ccc(Br)cc1)c1ccc([N+](=O)[O-])cc1 | > 16 µM (inactive)
